For assay [1], the target named is T1, recombinant human SYK360-635 (Homo sapiens, UniProt P43405).
T1 construct: truncated construct of Spleen Tyrosine Kinase aa 360-635; made in house
As to the kind of experiment: SYK kinase assay, 33P ATP filtration (ENZYME_FILTRATION_IC50). Type of assay: biochemical. Particulars: SYK aa 360-635 0.5 nM, ATP 20 μM, peptide 5 μM, 30° C. 15 min. The protocol:
Determination of IC50 of Spleen Tyrosine Kinase (SYK) Inhibition:
SYK kinase assay is a standard kinase assay adapted to a 96 well plate format. This assay is performed in 96-well format for IC50 determination with […] which represented 10 half log dilutions and a 40 μL reaction volume. The assay measures the incorporation of radiolabeled ^33P ATP into an N-terminally biotinylated peptide substrate, derived from naturally occurring phosphoacceptor consensus sequence (Biotin-11aa DY*E). Phosphorylated products were detected upon termination of reactions with EDTA and the addition of Streptavidin coated beads. Representative results are in Table II above.
Assay plates: 96-well MultiScreen 0.65 um filter plates (Millipore Cat. No.: MADVNOB10) Streptavidin coated beads: Streptavidin Sepharose™, suspension 5.0 mL, in 50 mM EDTA/PBS diluted (1:100), (Amersham, Cat. No.: 17-5113-01)
Compounds: 10 mM in 100% dimethylsulfoxide (DMSO), final conc.: compound 0.003-100 uM in 10% DMSO
Enzyme: SYK RPA purified, truncated construct of Spleen Tyrosine Kinase aa 360-635, stock solution 1 mg/mL, MW: 31.2 KDa, final conc.:0.0005 μM.
Peptide 1: biotinylated peptide is derived from a naturally occurring phosphor-acceptor consensus sequence (Biotin-EPEGDYEEVLE), special order from QCB, stock solution 20 mM, final conc.: 5.0 μM.
ATP: Adenosine-5′-triphosphate 20 mM, (ROCHE Cat. No.: 93202720), final concentration: 20 μM
Buffer: HEPES: 2-Hydroxyethyl piperazine-2-ethanesulfonic acid (Sigma, Cat. No.: H-3375) final concentration: 50 mM HEPES pH7.5
BSA: Bovine Serum Albumin Fraction V, fatty acid free (Roche Diagnostics GmbH, Cat. No. 9100221) diluted to a final concentration of 0.1%
EDTA: EDTA stock solution 500 mM, (GIBCO, Cat. No.: 15575-038) final concentration: 0.1 mM
DTT: 1,4-Dithiothreitol (Roche Diagnostics GmbH, Cat. No.: 197777), final conc.: 1 mM MgCl2×6H2O: MERCK, Cat. No.: 105833.1000, final concentration: 10 mM
Assay Dilution Buffer (ADB): 50 mM HEPES, 0.1 mM EGTA, 0.1 mM Na Vanadate, 0.1 mM β-glycerophosphate, 10 mM MgCl2, 1 mM DTT, 0.1% BSA, pH 7.5
Bead wash buffer: 10 g/L PBS (Phosphate buffered saline) with 2M NaCl+1% phosphoric acid.
In 40 μL volume, 26 μL of ADB diluted, purified recombinant human SYK360-635 [0.5 nM] was mixed with 4 μL of 10× concentrations of the test compounds, [usually 100 μM-0.003 μM] in [10%] DMSO and the mixture was incubated for 10 min at RT.
The kinase reaction was initiated by the addition of 10 μL 4× substrate cocktail containing the DYE peptide substrate [0 or 5 μM], ATP [20 μM] and ^33PγATP [2 μCi/rxn]. After incubation at 30° C. for 15 min, the reaction was terminated by the transfer of 25 μL pf the reaction sample to a 96 well 0.65 μm Millipore MADVNOB membrane/plate containing 200 μL 5 mM EDTA and 20% Streptavidine coated beads in PBS.
The unbound radionucleotides were washed under vacuum with 3×250 μL 2M NaCl; 2×250 μL 2M NaCl+1% phosphoric acid; 1×250 μL H2O. After the last wash membrane/plates were transferred to an adaptor plate, heat dried for 15 min at 60° C., and 50 μL scintillation cocktail was added to each well and 4 h later the amount of radioactivity was counted in a top counter.
The percent inhibition was calculated based on the uninhibited enzyme rate: % Inhibition=100/(1+(IC50/Inhibitor conc)^n)
The IC50 was calculated using a non-linear curve fit with XLfit software (ID Business Solution Ltd., Guilford, Surrey, UK).

A further assay relates to RAMOS. As to the kind of experiment: RAMOS_V2_IC50. As to conditions: Homo sapiens. In kind it is cell-based.
A further assay has as its system human whole blood. As to the kind of experiment: IC50: human whole blood. Type of assay: cell-based.

Where only a bound is given, the exact number is not on record here.

Turning to `Cc1ccc2[nH]c(-c3ncsc3NCC(C)C)nc2c1` [Compound I-44, N-isobutyl-4-(5-methyl-1H-benzo[d]imidazol-2-yl)thiazol-5-amine], the values for the IC50 (in assay [1]; with RAMOS) were 0.621 µM and 7.98 µM, respectively.
On the same counts, the results for `CCOC(=O)c1c[nH]nc1-c1nc2ccccn2n1` [Compound I-2, 3-[1,2,4]Triazolo[1,5-a]pyridin-2-yl-1H-pyrazole-4-carboxylic acid ethyl ester] are 0.113 µM and above 34.1 µM.
Take `CC(C)(C)NC(=O)c1c[nH]nc1-c1nc2c(s1)CCCC2` [Compound I-19, N-tert-butyl-3-(4,5,6,7-tetrahydrobenzo[d]thiazol-2-yl)-1H-pyrazole-4-carboxamide]: the IC50 (in general, the midpoint of a concentration-inhibition curve) with RAMOS is above 34.1 µM; in the assay on human whole blood, above 50 µM.
For `O=C(Nc1c[nH]nc1-c1nc2ccccc2s1)C1CCC1` [Compound I-26, Cyclobutanecarboxylic acid (3-benzothiazol-2-yl-1H-pyrazol-4-yl)-amide], the IC50 in assay [1] turned out to be 1.23 µM.
Regarding `O=C(NC1CCCC1)c1c[nH]nc1-c1nc(-c2ccccc2)cs1` [Compound I-20, N-cyclopentyl-3-(4-phenylthiazol-2-yl)-1H-pyrazole-4-carboxamide], the values for the IC50 (in assay [1]; with human whole blood) were 0.215 µM and above 50 µM, respectively.
As to `CC(C)NC(=O)c1c[nH]nc1-c1nc2ccccc2[nH]1` [Compound I-36, 3-(1H-Benzoimidazol-2-yl)-1H-pyrazole-4-carboxylic acid isopropylamide], the IC50 is 0.292 µM in the assay on RAMOS and 2.54 µM with human whole blood.
Regarding `O=C(NC1CCOCC1)c1c[nH]nc1-c1nc2c(s1)CCCC2` [Compound I-23, N-(tetrahydro-2H-pyran-4-yl)-3-(4,5,6,7-tetrahydrobenzo[d]thiazol-2-yl)-1H-pyrazole-4-carboxamide], the IC50 in assay [1] was 7.87 µM; in the assay on RAMOS it was above 34.1 µM.
Regarding `CCOC(=O)c1c[nH]nc1-c1nc2c(s1)CCC2` [Compound I-15, ethyl 3-(5,6-dihydro-4H-cyclopenta[d]thiazol-2-yl)-1H-pyrazole-4-carboxylate], the IC50 was above 10 µM in assay [1] and above 34.1 µM in the assay with RAMOS.
On the same counts, the results for `COc1cccc(-c2n[nH]cc2C(=O)NC(C)(C)C)n1` [Compound I-11, N-tert-butyl-3-(6-methoxypyridin-2-yl)-1H-pyrazole-4-carboxamide] are 7.95 µM and above 34.1 µM.
Regarding `CN1CCC(NC(=O)c2c[nH]nc2-c2nc3c(s2)CCCC3)CC1` [Compound I-24, N-(1-methylpiperidin-4-yl)-3-(4,5,6,7-tetrahydrobenzo[d]thiazol-2-yl)-1H-pyrazole-4-carboxamide], the IC50 in the assay on human whole blood is above 50 µM.
On to `O=C(NC1CCOCC1)c1c[nH]nc1-c1nc2ccccc2[nH]1` [Compound I-38, 3-(1H-Benzoimidazol-2-yl)-1H-pyrazole-4-carboxylic acid (tetrahydro-pyran-4-yl)-amide], for which the IC50 with RAMOS worked out at 0.483 µM; in the assay on human whole blood it was 0.87 µM.
For the compound `CCOC(=O)c1c[nH]nc1-c1nc2c(s1)CCCC2` [Compound I-14, ethyl 3-(4,5,6,7-tetrahydrobenzo[d]thiazol-2-yl)-1H-pyrazole-4-carboxylate], the IC50 in assay [1] was above 10 µM; in the assay on RAMOS, above 34.1 µM.
Take `CC(C)C(=O)Nc1c[nH]nc1-c1nc2ccccc2s1` [Compound I-3, N-(3-Benzothiazol-2-yl-1H-pyrazol-4-yl)-isobutyramide]: the results for the IC50 (in assay [1]; in the assay on RAMOS) were 2.08 µM and 5.41 µM, respectively.
Regarding `c1ccc(-c2ncc(-c3cc[nH]n3)s2)cc1` [Compound I-1, 2-Phenyl-5-(1H-pyrazol-3-yl)-thiazole], in assay [1], the IC50 came out at 35.2 µM.
In the case of `Cc1ccc2sc(-c3n[nH]cc3C(=O)NC(C)(C)C)cc2c1` [Compound I-10, N-tert-butyl-3-(5-methylbenzo[b]thiophen-2-yl)-1H-pyrazole-4-carboxamide], the IC50 is above 10 µM in assay [1] and above 50 µM with human whole blood.
For the compound `CC(C)(C)C(=O)Nc1c[nH]nc1-c1nc2ccccc2s1` [Compound I-4, N-(3-Benzothiazol-2-yl-1H-pyrazol-4-yl)-2,2-dimethyl-propionamide], the IC50 was 0.621 µM in assay [1] and 3.83 µM in the assay with RAMOS.
As for `Cc1ccc2[nH]c(-c3ncsc3NC3CCCC3)nc2c1` [Compound I-43, N-cyclopentyl-4-(5-methyl-1H-benzo[d]imidazol-2-yl)thiazol-5-amine], the IC50 in assay [1] is 0.699 µM; with RAMOS, above 34.1 µM.
Take `O=C(Nc1c[nH]nc1-c1nc2ccccc2s1)C1CC1` [Compound I-6, Cyclopropanecarboxylic acid (3-benzothiazol-2-yl-1H-pyrazol-4-yl)-amide]: the IC50 turned out to be 2.76 µM in assay [1] and 12 µM with RAMOS.
The like results for `CC(=O)OCC(C)(C)C(=O)Nc1c[nH]nc1-c1nc2ccccc2s1` [Compound I-27, Acetic acid 2-(3-benzothiazol-2-yl-1H-pyrazol-4-ylcarbamoyl)-2-methyl-propyl ester] were, in that order, 4.64 µM and 15.5 µM.
The like results for `c1cncc(Nc2scnc2-c2nc3cnccc3[nH]2)c1` [Compound I-41] were, in that order, 5.44 µM and above 31.2 µM.
On the same counts, the results for `O=C(Nc1c[nH]nc1-c1nc2ccccc2s1)C1CCCC1` [Compound I-5, Cyclopenanecarboxylic acid (3-benzothiazol-2-yl-1H-pyrazol-4-yl)-amide] are 1.28 µM and 4.65 µM.
`Cc1ccc2sc(-c3n[nH]cc3C(=O)NC(C)(C)CO)cc2c1` [Compound I-9, N-(1-hydroxy-2-methylpropan-2-yl)-3-(5-methylbenzo[b]thiophen-2-yl)-1H-pyrazole-4-carboxamide]: the IC50 was above 10 µM in assay [1] and above 50 µM in the assay with human whole blood.
On the same counts, the results for `CCC(C)(C)Nc1scnc1-c1nc2cc(C)ccc2[nH]1` [Compound I-42, 4-(5-methyl-1H-benzo[d]imidazol-2-yl)-N-tert-pentylthiazol-5-amine] are 1.62 µM and above 50 µM.
On to `CC(C)(C)NC(=O)c1c[nH]nc1-c1nc2ccccc2[nH]1` [Compound I-37, 3-(1H-Benzoimidazol-2-yl)-1H-pyrazole-4-carboxylic acid tert-butylamide], for which the results for the IC50 in the assay on RAMOS and in the assay on human whole blood were 0.14 µM and 2.86 µM, respectively.
Turning to `O=C(NC1CCOCC1)c1c[nH]nc1-c1nc2c(s1)CCC2` [Compound I-22, 3-(5,6-dihydro-4H-cyclopenta[d]thiazol-2-yl)-N-(tetrahydro-2H-pyran-4-yl)-1H-pyrazole-4-carboxamide], the IC50 is 1.99 µM in assay [1] and above 34.1 µM in the assay on RAMOS.
The like results for `CC(C)(CO)C(=O)Nc1c[nH]nc1-c1nc2ccccc2s1` [Compound I-28, N-(3-Benzothiazol-2-yl-1H-pyrazol-4-yl)-3-hydroxy-2,2-dimethyl-propionamide] were, in that order, 1.13 µM and 6.41 µM.
On the same counts, the results for `Cc1cccc2[nH]c(-c3ncsc3Nc3cccnc3)nc12` [Compound I-40, 4-(4-methyl-1H-benzo[d]imidazol-2-yl)-N-(pyridin-3-yl)thiazol-5-amine] are 0.487 µM and 0.764 µM.
In the case of `O=C(Nc1c[nH]nc1-c1nc2ccccc2s1)C1CCOCC1` [Compound I-25, Tetrahydro-pyran-4-carboxylic acid (3-benzothiazol-2-yl-1H-pyrazol-4-yl)-amide], the IC50 in assay [1] was found to be 4.61 µM; in the assay on RAMOS it was 5.21 µM.

(Values after patent US9988378B2, “1 H-pyrazole and 4,5-disubstituted thiazole inhibitors of SYK” (Hoffmann-La Roche Inc., priority 2012, dated 2018).)
